{
  "source": "patent US12533350B2",
  "about": "“Use of melanocortin-1 receptor agonist” (TANABE PHARMA CORPORATION, priority 2022, dated 2026)",
  "key": {"[1]": {"system": "bleomycin (BLM)-induced systemic sclerosis (SSc) model: skin fibrosis and lung inflammation", "protocol": "The back of mice was shaved, and the middle of the back was marked with oil-based red ink. Phosphate-buffered saline (PBS) or BLM (Nippon Kayaku) (0.15 mg/0.1 mL per animal) was subcutaneously injected at the marked site once daily from day 0 to day 25. Compound A solutions at 0.1 mL/10 g of body weight were orally administered once daily (approximately 2 hours before the BLM injection) for 29 consecutive days from day 0 until the day before the end of evaluation (day 28).\nOn day 29, mice were euthanized by inhalation anesthesia with isoflurane, and whole blood and back skin samples were collected. The left lung was dissected, weighed, and immersed in RNAlater solution (Qiagen). The collected blood was separated into serum. The injection site of skin was excised, weighed (wet weight) and immersed in 0.5 mol/L acetic acid solution containing 0.3 mg/mL pepsin to solubilize collagen. The collagen content of the solubilized sample was explored using the QuickZyme Soluble Collagen Assay kit (QuickZyme Biosciences), and absorbance was determined by a microplate reader (VERSAmax, Molecular Devices, LLC). Serum levels of surfactant protein D (SP-D) were assayed using the Rat/Mouse SP-D kit YAMASA EIA (Yamasa Corporation), and absorbance was determined by a microplate reader (VERSAmax, Molecular Devices, LLC). Total RNA of lungs was isolated using RNeasy 96 Universal Tissue Kit (Qiagen) according to the manufacturer's instructions. Real-time PCR was performed using the One Step SYBR PrimeScript PLUS RT-PCR Kit (Takara Bio Inc.) and ABI PRISM 7900HT Real Time PCR System (Applied Biosystems). Takara perfect real time primer pairs (Takara Bio Inc.) were used to analyze the gene expression of chemokine Cc12 (also named as monocyte chemotactic protein-1 (Mcp-1, MA066003)), interleukin-6 (IL-6, MA039013), and hypoxanthine phosphoribosyltransferase (Hprt, MA031262). Quantification was performed using the comparative CT (cycle threshold) method employing Hprt as the housekeeping gene. A serum concentration of endothelin 1 (ET-1) was assayed using Quantikine Endothelin-1 (R & D systems) and the absorbance was measured by the microplate reader (VERSAmax, Molecular Devices, LLC).\nTherefore, differences in body weight at each time point were analyzed between the PBS_vehicle and BLM_vehicle groups using Student's t test."}, "[2]": {"system": "dermal fibroblasts from SSc patients", "experiment": "TGF-β-induced human fibroblast activation, SSc patients", "format": "cell-based", "conditions": "concentration of 1000 nmol/L; TGF-β 10 ng/mL, 24 hours", "from_the_text": "Full-thickness skin biopsies were obtained from clinically involved skin of patients affected by dcSSc, who were recruited from the Systemic sclerosis clinic within the Leeds Institute of Rheumatic and Musculoskeletal Medicine (UK). Control skin samples were from healthy donors. All patients with dcSSc and healthy donors provided written informed consent through the stratification for risk of progression in systemic sclerosis (STRIKE SSC), which had been approved by the North-East Research Ethic committee. Patients with SSc fulfilled the 2013 ACR/EULAR classification criteria for SSc and were classified as having dcSSc according to the LeRoy and Medsger criteria.\nDermal fibroblasts were isolated from the skin biopsy samples of healthy donors and SSc patients. […]\nTotal RNA was extracted using the Zymo quick RNA mini prep kit according to manufacturer's instructions (Zymo Research Corporation). […] Quantitative RT-PCR was performed in triplicates using SYBR Green RT-PCR Mastermix Kit (Thermo Fisher Scientific) and the ABI PRISM 7500 Fast Real Time PCR System (Applied Biosystems). […]\nFIGS. 5(A)-5(B) show the effect of Compound A on human fibroblast activation. […] Each bar represents the mean±SEM of the measured values from three wells. […]"}, "[3]": {"system": "pre-established BLM-induced skin fibrosis"}, "[4]": {"conditions": "Compound A at ≥0.3 mg/kg orally once daily day 0-28, measured day 29"}, "[5]": {"conditions": "Compound A at ≥0.3 mg/kg orally once daily day 0-28, measured day 29, relative to Hprt"}, "[6]": {"conditions": "Compound A at 3 and 10 mg/kg orally once daily day 22-42, samples day 43"}},
  "data": [
    {"compound": "COC[C@H]1CN(C(=O)[C@]2(F)CN(C3CCCC3)C[C@H]2c2ccc(OC)cc2)C[C@@H]1c1ccc(C(F)(F)F)cc1N1CCC(C(=O)O)CC1", "note": "[Compound A, 1-{2-[(3S,4R)-1-{[(3R,4R)-1-cyclopentyl-3-fluoro-4-(4-methoxyphenyl)pyrrolidin-3-yl]carbonyl}-4-(methoxymethyl)pyrrolidin-3-yl]-5-(trifluoromethyl)phenyl}piperidine-4-carboxylic acid]", "values": [
      {"measurement": "BLM-induced increase of collagen content of the skin", "setting": "[1]; [4]", "result": "inhibited significantly"},
      {"measurement": "BLM-induced increase of serum concentration of ET-1", "setting": "[1]; [4]", "result": "inhibited significantly"},
      {"measurement": "BLM-induced increase of serum level of SP-D", "setting": "[1]; [4]", "result": "inhibited significantly"},
      {"measurement": "BLM-induced increase of wet weight of the left lung", "setting": "[1]; [4]", "result": "inhibited significantly"},
      {"measurement": "BLM-induced increase of IL-6 mRNA expression in the lung", "setting": "[1]; [5]", "result": "inhibited significantly"},
      {"measurement": "BLM-induced increase of Mcp-1 mRNA expression in the lung", "setting": "[1]; [5]", "result": "inhibited significantly"},
      {"measurement": "BLM-induced decrease of body weight", "setting": "[1]; Compound A at ≥0.3 mg/kg orally once daily, day 0 to day 29", "result": "significantly improved"},
      {"measurement": "TGF-β-induced increase in αSMA mRNA expression", "setting": "[2]", "result": "suppressed"},
      {"measurement": "BLM-induced increase of skin thickness", "setting": "[3]; [6]", "result": "significantly inhibited"},
      {"measurement": "BLM-induced increase of αSMA-positive myofibroblasts in the dermis", "setting": "[3]; [6]", "result": "significantly inhibited"},
      {"measurement": "BLM-induced loss of dermal white adipose tissue (Masson's trichrome staining)", "setting": "[3]; Compound A orally once daily day 22-42, samples day 43", "result": "inhibited"},
      {"measurement": "progression of fibrosis after 3 weeks (versus group 2: BLM 3 weeks then saline 3 weeks)", "setting": "[3]; Compound A orally once daily during last 3 weeks of 6-week BLM", "result": "almost completely inhibited"}
    ]}
  ]
}
